In patent publication US12264164B2, “Method of treatment of symptoms of menopause” (KaNDy Therapeutics Limited, priority 2018, dated 2025):

System: post-menopausal women experiencing moderate to severe vasomotor symptoms
Experiment: Efficacy assessments in the Phase 1b/2 study
Assay type: in vivo, human
Conditions: hard gelatin drug product, 150 mg once daily (three 50 mg capsules), doses tested 50-300 mg for 14 days
Description: There were 13 or 15 subjects per dose group.
Repeat once-a-day dosing of 150 mg Compound A gave a geometric mean exposure AUC0-24 5164 ng.hr/mL of the drug at Day 14.

## Cc1cc(F)ccc1-c1cc(N2C[C@H]3COCCN3C[C@H]2CO)ncc1N(C)C(=O)C(C)(C)c1cc(C(F)(F)F)cc(C(F)(F)F)c1 [Compound A, 2-[3,5-Bis(trifluoromethyl)phenyl]-N-{4-(4-fluoro-2-methylphenyl)-6-[(7S,9aS)-7-(hydroxymethyl)hexahydropyrazino[2,1-c][1,4]oxazin-8(1H)-yl]-3-pyridinyl}-N,2-dimethylpropanamide]
  efficacy assessments: maximum efficacy
